Assay results as given in patent US10351559B2, “Maleate salts of a B-RAF kinase inhibitor, crystalline forms, methods of preparation, and uses therefore” (BeiGene, Ltd., priority 2015, dated 2019).
Structures can show the parent of a compound that is named as a salt.

Assays:
[1] = pharmacokinetic study (LC-MS/MS); type: in vivo, beagle dogs; conditions: dogs
Description: The fully-validated LC-MS/MS method was well used for the pharmacokinetic (PK) studies of Crystalline Form A* of Compound 1 Sesqui-Maleate in Sprague-Dawley rats and beagle dogs following single- and multiple-dose administrations.

drug metabolism enzymes = assay: inhibition of drug metabolism enzymes; type: in vitro ADME; conditions: except CYP2C8 and CYP2C19
[2] = long-term stability study; type: physicochemical
CYP2C8 = CYP2C8 (Homo sapiens, UniProt P10632); assay: CYP inhibition; type: in vitro ADME
CYP2C8, sequence (P10632 whole entry): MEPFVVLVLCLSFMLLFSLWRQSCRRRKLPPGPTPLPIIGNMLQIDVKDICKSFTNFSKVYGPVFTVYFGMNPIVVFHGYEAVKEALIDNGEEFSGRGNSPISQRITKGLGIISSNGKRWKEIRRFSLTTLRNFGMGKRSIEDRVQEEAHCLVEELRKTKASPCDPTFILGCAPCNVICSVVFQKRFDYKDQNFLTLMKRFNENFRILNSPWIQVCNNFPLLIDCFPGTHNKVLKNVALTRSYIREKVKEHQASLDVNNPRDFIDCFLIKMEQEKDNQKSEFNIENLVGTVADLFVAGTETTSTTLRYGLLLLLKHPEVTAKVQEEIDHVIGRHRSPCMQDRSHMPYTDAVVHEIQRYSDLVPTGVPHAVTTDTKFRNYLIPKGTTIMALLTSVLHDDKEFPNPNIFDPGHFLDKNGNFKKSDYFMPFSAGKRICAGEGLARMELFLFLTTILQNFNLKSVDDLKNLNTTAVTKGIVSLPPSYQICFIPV

VEGFR2 = molecular target: T1, VEGFR2 (Homo sapiens, UniProt P35968); assay: HTRF KinEASE-TK kinase assay; type: biochemical
T1 construct: purchased Life Technologies
T1 sequence (P35968 20-1356): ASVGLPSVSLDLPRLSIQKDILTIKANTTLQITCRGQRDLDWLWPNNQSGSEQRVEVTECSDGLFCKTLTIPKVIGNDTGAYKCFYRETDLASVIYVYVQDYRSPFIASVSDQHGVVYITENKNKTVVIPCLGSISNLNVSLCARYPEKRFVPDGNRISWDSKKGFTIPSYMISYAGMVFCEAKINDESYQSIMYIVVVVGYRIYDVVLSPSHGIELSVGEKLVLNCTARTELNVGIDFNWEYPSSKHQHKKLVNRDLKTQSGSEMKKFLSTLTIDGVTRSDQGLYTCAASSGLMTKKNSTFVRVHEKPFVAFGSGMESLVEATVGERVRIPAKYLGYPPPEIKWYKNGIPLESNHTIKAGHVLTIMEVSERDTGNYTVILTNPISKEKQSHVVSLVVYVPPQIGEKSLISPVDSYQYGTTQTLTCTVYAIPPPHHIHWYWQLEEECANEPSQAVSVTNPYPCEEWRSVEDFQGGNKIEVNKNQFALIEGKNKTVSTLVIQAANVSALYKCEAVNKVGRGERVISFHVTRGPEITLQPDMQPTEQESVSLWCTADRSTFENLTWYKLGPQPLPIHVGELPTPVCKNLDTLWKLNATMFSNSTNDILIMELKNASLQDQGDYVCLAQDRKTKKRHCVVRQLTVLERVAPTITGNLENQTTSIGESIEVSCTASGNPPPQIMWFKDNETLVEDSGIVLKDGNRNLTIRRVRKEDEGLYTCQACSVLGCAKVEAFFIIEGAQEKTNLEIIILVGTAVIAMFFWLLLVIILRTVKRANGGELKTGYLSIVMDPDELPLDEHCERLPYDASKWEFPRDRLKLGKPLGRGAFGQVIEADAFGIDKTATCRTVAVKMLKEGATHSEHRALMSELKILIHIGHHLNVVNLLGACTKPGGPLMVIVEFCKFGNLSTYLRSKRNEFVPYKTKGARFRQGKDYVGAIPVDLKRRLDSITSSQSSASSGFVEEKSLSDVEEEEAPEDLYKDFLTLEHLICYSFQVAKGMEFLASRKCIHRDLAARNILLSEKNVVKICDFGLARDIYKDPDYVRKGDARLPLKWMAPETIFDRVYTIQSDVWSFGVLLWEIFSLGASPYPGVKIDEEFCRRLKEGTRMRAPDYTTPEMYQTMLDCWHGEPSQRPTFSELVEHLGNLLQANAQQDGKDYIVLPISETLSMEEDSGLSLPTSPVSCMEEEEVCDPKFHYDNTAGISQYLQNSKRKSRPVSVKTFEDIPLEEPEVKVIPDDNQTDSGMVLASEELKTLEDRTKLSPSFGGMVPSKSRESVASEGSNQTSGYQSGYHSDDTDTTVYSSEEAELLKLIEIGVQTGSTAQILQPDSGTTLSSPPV
Protocol: (§1) Crystalline Form A* of Compound 1 Sesqui-Maleate was tested against recombinant EGFR/EPHA2/BTK (from Carna Biosciences), ITK/TEC/SRC/PDGFR-beta/TXK/FLT3/VEGFR2/RET (from Life Technologies), and HER2 (aa676-1255, recombinant protein purified from insect expression system) in HTRF KinEASE-TK assay from Cisbio Bioassays according to the manufacturer's instructions. The assay was carried out in a reaction mixture containing kinases, ATP at KM concentration, biotinylated peptide substrate (61TK0BLC, Cisbio Bioassays) and Crystalline Form A* of Compound 1 Sesqui-Maleate. […] After reaction, stop/detection solution was added according to the manufacture's instruction. The stop/detection solution contained Eu+ cryptate conjugated antiphosphotyrosine antibody (61T66kLB, CisBio Bioassays) and Streptavidin-XL665 (610SAXLB, CisBio Bioassays) in buffer containing 25 mM Tris pH7.4, 400 mM KF, 50 mM EDTA, 0.01% BSA, 0.01% Triton X-100. The TR-FRET signals (ratio of fluorescence emission at 665 nm over emission at 620 nm with excitation at 337 nm wavelength) were recorded on a PHERAstar FS plate reader (BMG Labtech) after 1 hr incubation. Phosphorylation of biotinylated peptide substrate led to the binding of both Eu+ cryptate conjugated antiphosphotyrosine antibody and streptaviding-XL665 to the biotinylated peptide. The close proximity of the donor (Eu+ cryptate) and acceptor (XL665) fluorophore led to a high degree of fluorescence resonance energy transfer from the donor fluorophore (at 620 nm) to the acceptor fluorophore (at 665 nm). The IC50 for Crystalline Form A* of Compound 1 Sesqui-Maleate was derived from fitting the dose-response % inhibition data to the four-parameter logistic model by Graphpad Prism software.

WT-EGFR = molecular target: T2, WT-EGFR (Homo sapiens, UniProt P00533); assay: HTRF KinEASE-TK kinase assay; type: biochemical
T2 construct: purchased Carna Biosciences
T2 sequence (P00533 25-1210): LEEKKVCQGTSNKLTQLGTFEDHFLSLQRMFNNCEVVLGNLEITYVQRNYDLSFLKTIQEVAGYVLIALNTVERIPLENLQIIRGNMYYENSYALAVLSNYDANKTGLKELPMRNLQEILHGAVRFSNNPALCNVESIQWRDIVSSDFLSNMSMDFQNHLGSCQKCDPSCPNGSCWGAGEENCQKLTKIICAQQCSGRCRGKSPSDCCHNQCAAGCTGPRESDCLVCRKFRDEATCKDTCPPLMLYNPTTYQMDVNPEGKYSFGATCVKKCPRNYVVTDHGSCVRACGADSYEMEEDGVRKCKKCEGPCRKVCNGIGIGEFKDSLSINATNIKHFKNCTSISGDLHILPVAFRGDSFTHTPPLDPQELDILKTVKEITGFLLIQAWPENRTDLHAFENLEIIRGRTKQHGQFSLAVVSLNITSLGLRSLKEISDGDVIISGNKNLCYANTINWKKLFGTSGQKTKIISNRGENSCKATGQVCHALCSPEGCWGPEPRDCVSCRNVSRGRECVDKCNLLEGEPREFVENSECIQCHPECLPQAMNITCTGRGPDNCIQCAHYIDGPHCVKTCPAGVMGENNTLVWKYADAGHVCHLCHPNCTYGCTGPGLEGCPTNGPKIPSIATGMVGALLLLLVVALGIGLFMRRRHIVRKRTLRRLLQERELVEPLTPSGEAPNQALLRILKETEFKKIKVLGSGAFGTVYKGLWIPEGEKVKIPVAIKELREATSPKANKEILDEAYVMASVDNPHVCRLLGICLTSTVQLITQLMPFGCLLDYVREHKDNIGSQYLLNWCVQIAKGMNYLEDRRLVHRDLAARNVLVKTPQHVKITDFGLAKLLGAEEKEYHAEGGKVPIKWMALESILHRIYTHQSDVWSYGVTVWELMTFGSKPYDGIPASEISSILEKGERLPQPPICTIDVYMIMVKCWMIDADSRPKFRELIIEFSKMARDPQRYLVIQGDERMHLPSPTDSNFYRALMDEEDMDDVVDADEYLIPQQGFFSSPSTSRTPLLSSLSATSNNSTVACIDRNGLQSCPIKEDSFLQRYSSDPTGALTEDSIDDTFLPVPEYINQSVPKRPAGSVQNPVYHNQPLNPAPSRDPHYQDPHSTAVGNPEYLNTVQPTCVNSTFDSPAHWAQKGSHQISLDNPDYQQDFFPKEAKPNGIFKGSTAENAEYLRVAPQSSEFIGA
Protocol: as §1

HER2 (aa676-1255) = molecular target: T3, HER2 (aa676-1255) (Homo sapiens, UniProt P04626); assay: HTRF KinEASE-TK kinase assay; type: biochemical
T3 construct: HER2 (aa676-1255, recombinant protein purified from insect expression system); made in house; host or cells: insect expression system
T3 sequence (P04626 676-1255): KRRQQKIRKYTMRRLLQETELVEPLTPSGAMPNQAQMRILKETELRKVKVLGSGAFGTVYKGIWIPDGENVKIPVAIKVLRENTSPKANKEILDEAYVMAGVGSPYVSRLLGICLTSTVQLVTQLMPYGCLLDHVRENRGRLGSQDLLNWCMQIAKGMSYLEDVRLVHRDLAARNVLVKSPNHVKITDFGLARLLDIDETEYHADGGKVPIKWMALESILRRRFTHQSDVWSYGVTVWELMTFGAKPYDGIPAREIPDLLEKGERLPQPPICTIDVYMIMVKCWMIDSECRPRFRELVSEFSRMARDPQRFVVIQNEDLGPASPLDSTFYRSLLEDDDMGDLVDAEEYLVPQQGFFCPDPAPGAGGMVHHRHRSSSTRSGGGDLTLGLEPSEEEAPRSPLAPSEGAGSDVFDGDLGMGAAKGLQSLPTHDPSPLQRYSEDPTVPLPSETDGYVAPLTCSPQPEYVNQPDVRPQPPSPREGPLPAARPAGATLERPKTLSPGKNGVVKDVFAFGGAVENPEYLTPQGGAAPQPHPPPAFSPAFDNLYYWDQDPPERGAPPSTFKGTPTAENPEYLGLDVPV
Protocol: as §1

[3] = tested on: ERK phosphorylation in HT29 cells; assay: cellular phospho-ERK TR-FRET assay; type: cell-based; conditions: Homo sapiens, HT-29; B-RAF V600E mutant HT29 colorectal cancer cells, 1 h treatment
Protocol: (§2) A375, Sk-Mel-28, HT29, Colo205, A431, and HCC827 cell lines were purchased from American Type Culture Collection. All the cell lines used in the cellular assays were cultured in the designated medium supplemented with 10% fetal bovine serum (FBS, Thermo Scientific), 100 units/mL penicillin (Gibco), 0.1 mg/mL streptomycin (Gibco) and in a humidified 37° C. environment with 5% CO2. Cell lines were reinstated from frozen stocks laid down within three passages from the original cells purchased and passaged no more than 30 times.
(§3) Cellular phospho-ERK and phospho-EGFR were measured using a TR-FRET-based method. Cells were seeded at 3×10^4 per well of a 96-well plate and left to attach for 16 hours. Growth medium was then replaced with 100 μL of medium containing no serum. Cells were then treated with a 10-point titration of compound. After 1 h of compound treatment, 50 μL of lysis buffer (Cisbio) were added to each well. Plates were then incubated at room temperature with shaking for 30 min. A total of 16 μL of cell lysate from each well of a 96-well plate was transferred to a 384-well small volume white plate. Lysate from each well was incubated with 2 μL of Eu3+- or Tb3+-cryptate (donor) labeled anti-ERK or anti-EGFR antibody (Cisbio) and 2 μL of D2 (acceptor) labeled anti-phospho-ERK or anti-phospho-EGFR antibody (Cisbio) for 2 h at room temperature. FRET signals were measured using a PHERAstar FS reader (BMG Labtech). IC50 values for ERK or EGFR phosphorylation was determined using GraphPad Prism software.

[4] = tested on: ERK phosphorylation in A375 cells; assay: cellular phospho-ERK TR-FRET assay; type: cell-based; conditions: Homo sapiens, A-375; B-RAF V600E mutant melanoma A375 cells, 1 h treatment
Protocol: as §2, §3

[5] = tested on: ERK phosphorylation in Colo205 cells; assay: cellular phospho-ERK TR-FRET assay; type: cell-based; conditions: Homo sapiens, COLO 205; B-RAF V600E mutant Colo205 colorectal cancer cells, 1 h treatment
Protocol: as §2, §3

[6] = tested on: ERK phosphorylation in Sk-Mel-28 cells; assay: cellular phospho-ERK TR-FRET assay; type: cell-based; conditions: Homo sapiens; B-RAF V600E mutant melanoma Sk-Mel-28 cells, 1 h treatment
Protocol: as §2, §3

In the case of `O=C1CCc2c(Oc3ccc4c(c3)[C@@H]3[C@H](O4)[C@H]3c3nc4ccc(C(F)(F)F)cc4[nH]3)ccnc2N1` [5-(((1R,1aS,6bR)-1-(6-(trifluoromethyl)-1H-benzo[d]imidazol-2-yl)-1a,6b-dihydro-1H-cyclopropa[b]benzofuran-5-yl)oxy)-3,4-dihydro-1,8-naphthyridin-2(1H)-one sesqui-maleate salt], the bioavailability ([1]; beagle, dog, in vivo, po) is reported as 41 to 82%, the half-life ([1]; beagle, dog, in vivo, after oral administration, read-out: elimination half-life) is reported as 3.3 to 4.9 h and the “accumulation after multiple dosing” value [1] is reported as “No accumulation”. For the same compound, the “kinetics over dose range” value ([1]; 1.5 to 15 mg/kg) was “linear”, the “inhibitory activity on drug metabolism enzymes” value (drug metabolism enzymes) was “no inhibitory activity” and the “purity after stability study” value ([2]; 24 month at 25 C/75% RH) was 98.5%. For the same compound, the “crystal form and optical purity changes” value ([2]; 25° C./60% RH up to 18 months and 40° C./75% RH up to 6 months) was “no crystal form and optical purity changes were observed”, the Assay w/w ([2]; T0, 25° C./60% RH study) was 99.1% and the Assay w/w ([2]; T0, 40° C./75% RH study) was 99.1%. The Assay w/w ([2]; T6: 6 months at 40° C./75% RH) was 98.9%, the Assay w/w ([2]; T18: 18 months at 25° C./60% RH) was 98.8% and the IC50 (CYP2C8) was 1.03 µM. For the same compound, the “enzyme inhibition” value (VEGFR2) was “potently inhibits”, the IC50 (VEGFR2; ATP at KM) was 0.022 µM and the “enzyme inhibition” value (WT-EGFR; EGFR) was “potently inhibits”. The IC50 (WT-EGFR; WT-EGFR, ATP at KM) was 0.044 µM, the “enzyme inhibition” value (HER2 (aa676-1255)) was “weak inhibition” and the IC50 (HER2 (aa676-1255); ATP at KM) was 2.57 µM. The IC50 [3] was 0.103 µM, the IC50 [4] was 0.032 µM and the IC50 [5] was 0.053 µM. It also gave an IC50 [6] of 0.077 µM.
